Read-outs that look alike come from different tables or passages of the source.
Columns and labels:
[1] = test system: ADP-induced human platelet aggregation; test: Inhibition of ADP-mediated platelet aggregation in vitro (96-well microtiter assay, washed platelets); format: cell-based; conditions: for IC50: Platelet
Experimental: The effect of test Compounds 1-8 of, respectively, Examples 1-8 on ADP-induced human platelet aggregation was assessed in 96-well microtiter assay. Human venous blood was collected from healthy, drug-free volunteers into ACD (85 mM sodium citrate, 111 mM glucose, […] citric acid) containing PGI2 (1.25 ml ACD containing 1.6 μM PGI2/10 ml blood; PGI2 was from Sigma, St. Louis, Mo.). Platelet-rich plasma (PRP) was prepared by centrifugation at 160×g for 20 minutes at room temperature. Washed platelets were prepared by centrifuging PRP for 10 minutes at 730×g and resuspending the platelet pellet in CGS (13 mM sodium citrate, 30 mM glucose, 120 mM NaCl; 2 ml CGS/10 ml original blood volume) containing 1 U/ml apyrase (grade V, Sigma, St. Louis, Mo.). After incubation at 37° C. for 15 minutes, the platelets were collected by centrifugation at 730×g for 10 minutes and resuspended at a concentration of 3×10^8 platelets/ml in Hepes-Tyrode's buffer (10 mM Hepes; 138 mM NaCl, 5.5 mM glucose, 2.9 mM KCl, 12 mM NaHCO3, pH 7.4) containing 0.1% bovine serum albumin, 1 mM CaCl2 and 1 mM MgCl2. This platelet suspension was kept >45 minutes at 37° C. before use in aggregation assays.
Inhibition of ADP-dependent aggregation was determined in 96-well flat-bottom microtiter plates using a microtiter plate shaker and plate reader similar to the procedure described by Frantantoni et al., Am. J. Clin. Pathol. 94, 613 (1990). All steps were performed at room temperature. The total reaction volume of 0.2 ml/well included in Hepes-Tyrodes buffer/0.1% BSA: 4.5×10^7 apyrase-washed platelets, 0.5 mg/ml human fibrinogen (American Diagnostica, Inc., Greenwich, Conn.), serial dilutions of test compounds (buffer for control wells) in 0.6% DMSO. After about 5 minutes preincubation at room temperature, ADP was added to a final concentration of 2 μM which induces submaximal aggregation. Buffer was added instead of ADP to one set of control wells (ADP^−control). The OD of the samples was then determined at 490 nm using a microtiter plate reader (Softmax, Molecular Devices, Menlo Park, Calif.) resulting in the 0 minute reading. The plates were then agitated for 5 min on a microtiter plate shaker and the 5 minute reading obtained in the plate reader. Aggregation was calculated from the decrease of OD at 490 nm at t=5 minutes compared to t=0 minutes and expressed as % of the decrease in the ADP control samples corrected for changes in the unaggregated control samples.
In some experiments, 0.3 mM 8-sulphophenyltheophylline (8-SPT, Sigma, St. Louis, Mo.) was added to the reaction to block any potential adenosine receptor activity of test compounds.

platelet ADP receptors = platelet ADP receptors (Homo sapiens, UniProt Q9H244); test: Inhibition of [^3H]2-MeS-ADP binding to platelets
Experimental: All steps were performed at room temperature unless indicated otherwise.

[2] = target: T1, human P2Y1 receptor (hP2Y1) (Homo sapiens, UniProt P47900); test: hP2Y1 receptor activity assay (2-MeS-ADP-induced intracellular calcium mobilization in hP2Y1-JA7 Jurkat cells); format: cell-based; conditions: 10^-7 M 2-MeS-ADP, read-out: IC50 on 2-MeS-ADP-mediated intracellular calcium mobilization
T1 construct: a genomic fragment encompassing the entire open reading frame of the human P2Y1 receptor; expressed in transfected cells; host or cells: Jurkat cells, clonal line hP2Y1-JA7, vector pcINeo
Experimental: Therefore, hP2Y1 receptor activity of test compounds was assessed by measuring agonist-induced intracellular calcium mobilization in a mammalian cell line expressing the cloned receptor gene.
For intracellular calcium measurements, cells were collected by centrifugation, washed and resuspended in Hepes-Tyrodes buffer/0.1% BSA/1 mM CaCl2 at 10^7 cells/ml at 37° C. Fura-2AM (Molecular Probes, Eugene, Oreg.) was added to 4 μM in the presence of 0.008% Pluronic F-27 (Molecular Probes, Eugene, Oreg.) and incubation continued for 30 minutes at 37° C. in the dark with gentle agitation. Cells were collected by centrifugation and incubated for 15 minutes at 37° C. in buffer with 1 U apyrase/ml. Cells were then centrifuged and resuspended at 4° C. and 2×10^6 cells/ml. […] Calcium responses were determined for the agonist 2-MeS-ADP (2-methylthioadenosine diphosphate, trisodium salt, RBI, Natick, Ma.) at the submaximal concentration of 10^−7M in the absence and presence of various concentrations of test compounds. Maximum ratios were determined after lysis of cells with 100 μM digitonin, minimum ratios after addition of 20 mM iris and 10 mM EGTA. […] Increases in intracellular calcium levels were determined by subtraction of baseline levels from peak calcium levels.

[3] = Homo sapiens, units given with the value (nM to μM), read-out: IC50s of ADP-dependent aggregation of human platelets, span over the series
[4] = washed human platelets, 2 μM ADP, mean of 3-12 independent experiments in duplicate, read-out: IC50 Aggregation (inhibition of ADP-dependent platelet aggregation)
[5] = outdated human platelets, 1 nM [^3H]2-MeS-ADP, mean of 2-8 independent experiments in duplicate

Chain of platelet ADP receptors (Q9H244 whole entry): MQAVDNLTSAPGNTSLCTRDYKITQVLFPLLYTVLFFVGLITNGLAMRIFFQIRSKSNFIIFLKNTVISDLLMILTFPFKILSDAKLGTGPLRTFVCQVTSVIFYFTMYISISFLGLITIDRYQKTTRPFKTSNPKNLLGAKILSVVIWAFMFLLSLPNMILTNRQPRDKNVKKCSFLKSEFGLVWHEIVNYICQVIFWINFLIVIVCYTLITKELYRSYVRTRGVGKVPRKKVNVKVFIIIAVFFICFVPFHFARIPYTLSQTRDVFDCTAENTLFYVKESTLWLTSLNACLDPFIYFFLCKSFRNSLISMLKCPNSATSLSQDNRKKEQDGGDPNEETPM
T1 sequence (P47900 whole entry, the tested form may be a part): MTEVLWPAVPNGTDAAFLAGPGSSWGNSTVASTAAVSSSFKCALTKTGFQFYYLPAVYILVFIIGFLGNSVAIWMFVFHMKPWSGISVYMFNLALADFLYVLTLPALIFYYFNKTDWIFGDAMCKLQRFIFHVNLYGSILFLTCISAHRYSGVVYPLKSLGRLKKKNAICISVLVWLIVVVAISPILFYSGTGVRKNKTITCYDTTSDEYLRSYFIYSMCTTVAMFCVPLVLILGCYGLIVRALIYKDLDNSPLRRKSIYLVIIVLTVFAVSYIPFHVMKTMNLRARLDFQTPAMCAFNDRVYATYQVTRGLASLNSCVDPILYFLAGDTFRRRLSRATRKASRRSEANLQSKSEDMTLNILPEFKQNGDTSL

In the case of CS(=O)(=O)c1ccc2c(c1)SC1=NS(=O)(=O)C(C(=O)CS(=O)(=O)Nc3nc4ccc(S(C)(=O)=O)cc4s3)=C(O)N12 [Compound 5, N^1-(6-Methylsulfonyl-1,3-benzothiazol-2-yl)-2-(8-methylsulfonyl-4-hydroxy-2,2-dioxo-2H-2l^6-benzo[4,5][1,3]thiazolo[2,3-c][1,2,4]thiadiazin-3-yl)-2-oxo-1-ethanesulfonamide], the IC50 [1, 3] is reported as ≥ 180 nM and the IC50 [1, 4] is reported as 700 nM.

In the case of O=C(CS(=O)(=O)Nc1nc2ccc(Cl)cc2s1)C1=C(O)N2C(=NS1(=O)=O)Sc1cc(Cl)ccc12 [Compound 4, N^1-(6-Chloro-1,3-benzothiazol-2-yl)-2-(8-chloro-4-hydroxy-2,2-dioxo-2H-2l^6-benzo[4,5][1,3]thiazolo[2,3-c][1,2,4]thiadiazin-3-yl)-2-oxo-1-ethanesulfonamide], the IC50 [1, 3] is reported as ≥ 180 nM and the IC50 [1, 4] is reported as 64000 nM.

For COc1ccc2c(c1)SC1=NS(=O)(=O)C(C(=O)CS(=O)(=O)Nc3nc4ccc(OC)cc4s3)=C(O)N12 [Compound 8, N^1-(6-Methoxy-1,3-benzothiazol-2-yl)-2-(8-methoxy-4-hydroxy-2,2-dioxo-2H-2l^6-benzo[4,5][1,3]thiazolo[2,3-c][1,2,4]thiadiazin-3-yl)-2-oxo-1-ethanesulfonamide], the IC50 [1, 3] was ≥ 180 nM, the IC50 [1, 4] was 1500 nM and the IC50 (platelet ADP receptors; [5]) was 800 nM.

O=C(CS(=O)(=O)Nc1nc2ccccc2s1)C1=C(O)N2C(=NS1(=O)=O)Sc1ccccc12 [Compound 2, N^1-(1,3-benzothiazol-2-yl)-2-(4-hydroxy-2,2-dioxo-2H-2l^6-benzo[4,5][1,3]thiazolo[2,3-c][1,2,4]thiadiazin-3-yl)-2-oxo-1-ethanesulfonamide] was tested, and the IC50 [1, 3] was ≥ 180 nM and the IC50 [1, 4] was 26000 nM.

With Cc1ccc2c(c1)SC1=NS(=O)(=O)C(C(=O)CS(=O)(=O)Nc3nc4ccc(C)cc4s3)=C(O)N12 [Compound 3, N^1-(6-Methyl-13-benzothiazol-2-yl)-2-(8-methyl-4-hydroxy-2,2-dioxo-2H-2l^6-benzo[4,5][1,3]thiazolo[2,3-c][1,2,4]thiadiazin-3-yl)-2-oxo-1-ethanesulfonamide] the IC50 [1, 3] was ≥ 180 nM, the IC50 [1, 4] was 9500 nM and the IC50 (platelet ADP receptors; [5]) was 22000 nM.

In the case of O=C(CS(=O)(=O)Nc1nc2ccc([N+](=O)[O-])cc2s1)C1=C(O)N2C(=NS1(=O)=O)Sc1cc([N+](=O)[O-])ccc12 [Compound 6, N^1-(6-Nitro-1,3-benzothiazol-2-yl)-2-(8-nitro-4-hydroxy-2,2-dioxo2H-2l^6-benzo[4,5][1,3]thiazolo[2,3-c][1,2,4]thiadiazin-3-yl)-2-oxo-1-ethanesulfonamide], the IC50 [1, 3] is reported as ≥ 180 nM and the IC50 [1, 4] is reported as 50000 nM.

In the case of O=C(CS(=O)(=O)Nc1nc2ccc(F)cc2s1)C1=C(O)N2C(=NS1(=O)=O)Sc1cc(F)ccc12 [Compound 7, N^1-(6-Fluoro-1,3-benzothiazol-2-yl)-2-(8-fluoro-4-hydroxy-2,2-dioxo-2H-2l^6-benzo[4,5][1,3]thiazolo[2,3-c][1,2,4]thiadiazin-3-yl)-2-oxo-1-ethanesulfonamide], the IC50 [1, 3] is reported as ≥ 180 nM and the IC50 [1, 4] is reported as > 120000 nM.

For CCOc1ccc2c(c1)SC1=NS(=O)(=O)C(C(=O)CS(=O)(=O)Nc3nc4ccc(OCC)cc4s3)=C(O)N12 [Compound 1, N^1-(6-Ethoxy-1,3-benzothiazol-2-yl)-2-(8-ethoxy-4-hydroxy-2,2-dioxo-2H-2l^6-benzo[4,5][1,3]thiazolo[2,3-c][1,2,4]thiadiazin-3-yl)-2-oxo-1-ethanesulfonamide], the “potency on ADP-dependent aggregation in the presence of 8-sulphophenyltheophylline” value ([1]; 0.3 mM 8-SPT (adenosine receptor antagonist) added) was “not reduced”, the IC50 ([1]; Homo sapiens, read-out: IC50s of ADP-dependent aggregation of human platelets, span over the series) was ≥ 180 nM and the IC50 [1, 4] was 180 nM. For the same compound, the IC50 (platelet ADP receptors) was 170 nM and the IC50 [2] was > 100 µM.

Reference: patent US6667306B1, “Platelet ADP receptor inhibitors” (Millennium Pharmaceuticals, Inc., priority 1998, dated 2003)
